From ChEMBL document CHEMBL3407431, “Structure-based modification of 3-/4-aminoacetophenones giving a profound change of activity on tyrosinase: from potent activators to highly efficient inhibitors” (Eur J Med Chem, 2015) come the findings set out here.

Calls of active or inactive are those of the source. The rule behind the calls is not given here.

The first test has as its target T1, Tyrosinase (Agaricus bisporus) (UniProt O42713).
T1 sequence (whole entry): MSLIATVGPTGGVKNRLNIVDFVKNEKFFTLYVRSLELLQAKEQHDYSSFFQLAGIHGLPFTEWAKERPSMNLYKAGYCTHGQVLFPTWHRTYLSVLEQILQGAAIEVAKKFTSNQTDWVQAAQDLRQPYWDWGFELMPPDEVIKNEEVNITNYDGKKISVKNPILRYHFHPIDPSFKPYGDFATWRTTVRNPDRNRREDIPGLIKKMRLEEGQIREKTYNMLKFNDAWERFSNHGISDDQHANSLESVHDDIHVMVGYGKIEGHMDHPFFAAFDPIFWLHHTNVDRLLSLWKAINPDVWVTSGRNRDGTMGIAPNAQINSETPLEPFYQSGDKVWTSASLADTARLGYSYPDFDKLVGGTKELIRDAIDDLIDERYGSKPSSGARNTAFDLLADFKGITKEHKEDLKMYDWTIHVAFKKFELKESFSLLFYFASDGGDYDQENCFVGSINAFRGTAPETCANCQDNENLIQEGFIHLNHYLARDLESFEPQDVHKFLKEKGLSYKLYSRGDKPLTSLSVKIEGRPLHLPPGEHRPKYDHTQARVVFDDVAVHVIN
The test can be described thus: Activation of mushroom tyrosinase at 0.12 to 75 ug/L relative to control.
In the case of `OC[C@H]1O[C@@H](Oc2c(O)cc(O)cc2/C=C/c2ccc(O)cc2)[C@H](O)[C@@H](O)[C@@H]1O`, the Activity was 12%.

A further test addresses T1, Tyrosinase (Agaricus bisporus). As to the kind of experiment: Activation of mushroom tyrosinase using L-DOPA as substrate at 100 umol/L preincubated for 30 mins followed by substrate addition measured for 1 min.
Consider `CC(=O)Nc1ccc(C(C)=O)cc1`, for which the outcome was Active.

The target is the same in another test. The test can be described thus: Reversible inhibition of mushroom tyrosinase using L-DOPA as substrate at 0.1 to 0.5 uM.
Take `C/C(=N\NC(N)=S)c1ccc(NC(=O)c2ccccc2)cc1`: the inhibition result is “Active”.

Another test has the same target. As to the kind of experiment: Reversible inhibition of mushroom tyrosinase using L-DOPA as substrate at 1 to 2 uM.
Consider `C/C(=N\NC(N)=S)c1cccc(NC(=O)c2ccccc2)c1`, for which the inhibition result is “Active”.

Another test has the same target. As to the kind of experiment: Non-competitive inhibition of mushroom tyrosinase using L-DOPA as substrate at 0.1 to 0.5 uM by Lineweaver-Burk plot analysis.
As to `C/C(=N\NC(N)=S)c1ccc(NC(=O)c2ccccc2)cc1`, the inhibition result is “Active”.

Another test shares this target. The test can be described thus: Competitive-uncompetitive mixed-2 type inhibition of mushroom tyrosinase using L-DOPA as substrate at 1 to 2 uM by Lineweaver-Burk plot analysis.
In the case of `C/C(=N\NC(N)=S)c1cccc(NC(=O)c2ccccc2)c1`, the inhibition entry is “Active”.

For a further test, the target named is T2, Tyrosinase (Agaricus bisporus, UniProt O42713).
T2 sequence (O42713 whole entry): T1 sequence (whole entry)
Description: Inhibition of mushroom tyrosinase diphenolase activity using L-DOPA as substrate preincubated for 30 mins followed by substrate addition measured for 1 min
The IC50 is the concentration that gives 50% inhibition. Read a high IC50 as a need for much substance. `C/C(=N\NC(N)=S)c1ccc(NC(=O)C(C)C)cc1` registered an IC50 of 0.814 µM.
Take `C/C(=N\NC(N)=S)c1cccc(NC(=O)c2ccccc2)c1`: the IC50 is 1.53 µM.
`C/C(=N\NC(N)=S)c1cccc(N)c1` came in with an IC50 of 6.11 µM. Against the preceding compound, the IC50 is about 4-fold higher.
Same read-out and setting: the result for `CCCCCCC(=O)Nc1ccc(/C(C)=N/NC(N)=S)cc1` reads 0.356 µM.
The same measure, in the same setting: the result for `C/C(=N\NC(N)=S)c1ccc(NC(=O)C(Cl)(Cl)Cl)cc1` reads 0.406 µM; that for `C/C(=N\NC(N)=S)c1ccc(NC(=O)Cc2ccccc2)cc1`, 0.578 µM.
The same measure, in the same setting: the result for `C/C(=N\NC(N)=S)c1ccc(N)cc1` reads 2.62 µM; that for `CCC(=O)Nc1ccc(/C(C)=N/NC(N)=S)cc1`, 0.372 µM; that for `CCCCCC(=O)Nc1ccc(/C(C)=N/NC(N)=S)cc1`, 0.762 µM.
Regarding `CCCCCCC(=O)Nc1cccc(/C(C)=N/NC(N)=S)c1`, it took 2.2 µM to reach half-maximal inhibition (IC50).
Turning to `CC(=O)Nc1cccc(/C(C)=N/NC(N)=S)c1`, 4.12 µM corresponded to half-maximal inhibition (IC50).
Regarding `C/C(=N\NC(N)=S)c1ccc(NC(=O)c2ccc(F)cc2)cc1`, the half-inhibitory concentration (IC50) came out at 0.61 µM.
As for `CC(=O)Nc1ccc(/C(C)=N/NC(N)=S)cc1`, the IC50 is 0.508 µM.
Same read-out and setting: the result for `CCCCC(=O)Nc1cccc(/C(C)=N/NC(N)=S)c1` reads 1.54 µM; that for `C/C(=N\NC(N)=S)c1ccc(NC(=O)c2ccccc2)cc1`, 0.291 µM.
Still for that read-out and setting: the result for `C/C(=N\NC(N)=S)c1cccc(NC(=O)C(F)(F)F)c1` reads 5.76 µM; that for `C/C(=N\NC(N)=S)c1cccc(NC(=O)C(C)(C)C)c1`, 4.41 µM; that for `COc1ccc(C(=O)Nc2ccc(/C(C)=N/NC(N)=S)cc2)cc1`, 1.14 µM.
The compound `CCCC(=O)Nc1ccc(/C(C)=N/NC(N)=S)cc1` had an IC50 of 0.644 µM.
Still for that read-out and setting: the result for `CCCCC(=O)Nc1ccc(/C(C)=N/NC(N)=S)cc1` reads 0.492 µM; that for `C/C(=N\NC(N)=S)c1cccc(NC(=O)C(C)C)c1`, 3.62 µM.
The same measure, in the same setting: the result for `C/C(=N\NC(N)=S)c1cccc(NC(=O)Cc2ccccc2)c1` reads 1.79 µM; that for `C/C(=N\NC(N)=S)c1ccc(NC(=O)C(F)(F)F)cc1`, 1.34 µM.
Same read-out and setting: the result for `COC(=O)Nc1ccc(/C(C)=N/NC(N)=S)cc1` reads 0.498 µM.
With `CCCCCC(=O)Nc1cccc(/C(C)=N/NC(N)=S)c1`, the IC50 turned out to be 1.69 µM.
